Like-named read-outs stand apart in the source and are kept apart here.
Experiments:
Type in all cases: cell-based
[1] = system: 15-PGDH luciferase fusion construct in LS174T reporter cell line; assay: 15-PGDH-luciferase fusion gene reporter induction, LS174T cells; conditions: Homo sapiens
[2] = system: 15-PGDH luciferase fusion construct in Vaco503 reporter cell line; assay: 15-PGDH-luciferase fusion gene reporter induction, V503 cells
[3] = system: 15-PGDH luciferase fusion construct in V9m reporter cell line; assay: 15-PGDH-luciferase fusion gene reporter induction, V9m cells
[4] = read-out: Ls174T-SC1 reporter activity, % ([…]), LS174T reporter cells, […] compound, % induction of luciferase activity over basal level, read-out: Ls174T-SC1 reporter activity, % (2.5 μM)
[5] = read-out: Ls174T-SC1 reporter activity, % ([…]), LS174T reporter cells, […] compound, % induction of luciferase activity over basal level, read-out: Ls174T-SC1 reporter activity, % (7.5 μM)
[6] = read-out: V503-3H9-7 reporter activity, % ([…]), V503 reporter cells, […] compound, % induction of luciferase activity over basal level, read-out: V503-3H9-7 reporter activity, % (2.5 μM)
[7] = read-out: V503-3H9-7 reporter activity, % ([…]), V503 reporter cells, […] compound, % induction of luciferase activity over basal level, read-out: V503-3H9-7 reporter activity, % (7.5 μM)
[8] = read-out: V9M-SC3 Reporter activity ([…]) (%), V9m reporter cells, […] compound, % induction of luciferase activity over basal level, read-out: V9M-SC3 Reporter activity (2.5 μM) (%)
[9] = read-out: V9M-SC3 Reporter activity ([…]), %, V9m reporter cells, […] compound, % induction of luciferase activity over basal level, read-out: V9M-SC3 Reporter activity (7.5 μM), %
[10] = read-out: LS174T reporter activity ([…]), […], % increased luciferase activity over basal level, read-out: LS174T reporter activity (2.5 uM)
[11] = read-out: LS174T reporter activity ([…]), […], % increased luciferase activity over basal level, read-out: LS174T reporter activity (7.5 uM)
[12] = read-out: V503 reporter activity ([…]), […], % increased luciferase activity over basal level, read-out: V503 reporter activity (2.5 uM)
[13] = read-out: V503 reporter activity ([…]), […], % increased luciferase activity over basal level, read-out: V503 reporter activity (7.5 uM)
[14] = read-out: V9M reporter activity ([…]), […], % increased luciferase activity over basal level, 100 = doubling, read-out: V9M reporter activity (2.5 uM)
[15] = read-out: V9M reporter activity ([…]), […], % increased luciferase activity over basal level, 100 = doubling, read-out: V9M reporter activity (7.5 uM)
[16] = read-out: LS174T reporter activity ([…]), […], % induction over basal level, Table 17, read-out: LS174T reporter activity (2.5 μM)
[17] = read-out: lS174T reporter activity ([…]), […], % induction over basal level, Table 17, read-out: lS174T reporter activity (7.5 μM)
[18] = read-out: V503 reporter activity ([…]), […], % induction over basal level, Table 17, read-out: V503 reporter activity (2.5 μM)
[19] = read-out: V503 reporter activity ([…]), […], % induction over basal level, Table 17, read-out: V503 reporter activity (7.5 μM)
[20] = read-out: V9M reporter activity ([…]), […], % induction of luciferase activity over basal level, Table 17, read-out: V9M reporter activity (2.5 μM)
[21] = read-out: V9M reporter activity ([…]), […], % induction over basal level, Table 17, read-out: V9M reporter activity (7.5 μM)

## COc1ccc(OC)c(N(CC(=O)Nc2cccnc2)S(=O)(=O)c2ccccc2C#N)c1 [SW202945]
[1]; [4]
  activation at […]: 45.7%
[1]; [5]
  activation at […]: 135%
[2]; [6]
  activation at […]: 34%
[2]; [7]
  activation at […]: 127%
[3]; [8]
  activation at […]: 28.5%
[3]; [9]
  activation at […]: 90%

## COc1ccc(OC)c(N(CC(=O)Nc2ccccc2C)S(=O)(=O)c2ccccc2)c1 [SW202975]
[1]; [4]
  activation at […]: -7.32%
[1]; [5]
  activation at […]: 17.2%
[2]; [6]
  activation at […]: 47.4%
[2]; [7]
  activation at […]: 116%
[3]; [8]
  activation at […]: -26.6%
[3]; [9]
  activation at […]: -8.97%

## COc1ccc(OC)c(N(CC(=O)Nc2ccnc(Cl)c2)S(=O)(=O)c2ccccc2)c1 [SW202946]
[1]; [4]
  activation at […]: 105%
[1]; [5]
  activation at […]: -23.6%
[2]; [6]
  activation at […]: 137%
[2]; [7]
  activation at […]: 34.3%
[3]; [8]
  activation at […]: 64.6%
[3]; [9]
  activation at […]: -41.5%

## CCCC[S+]([O-])c1sc2ncccc2c1N (centres unmarked) [SW208064, 2-(butylsulfinyl)thieno[2,3-b]pyridin-3-amine]
[1]; [10]
  activation at […]: 126%
[1]; [11]
  activation at […]: 96.2%
[2]; [12]
  activation at […]: 126%
[2]; [13]
  activation at […]: 96.2%
[3]; [14]
  activation at […]: 82.6%
[3]; [15]
  activation at […]: 50.1%

## CS(=O)(=O)c1sc2nc(-c3cccs3)cc(-c3ccccc3)c2c1N [SW033290, 2-(methylsulfonyl)-4-phenyl-6-(thiophen-2-yl)thieno[2,3-b]pyridin-3-amine]
[1]; [10]
  activation at […]: -0.24%
[1]; [11]
  activation at […]: -6.58%
[2]; [12]
  activation at […]: 30.9%
[2]; [13]
  activation at […]: 17.7%
[3]; [14]
  activation at […]: -34.3%
[3]; [15]
  activation at […]: -25.4%

## COc1ccc(N(CC(=O)Nc2ccc(Br)cc2)S(=O)(=O)c2ccccc2)c(OC)c1 [compound 785161]
[1]; [16]
  activation at […]: 10.7%
[1]; [17]
  activation at […]: -41.9%
[2]; [18]
  activation at […]: 56.7%
[2]; [19]
  activation at […]: -52.5%
[3]; [20]
  activation at […]: 0.54%
[3]; [21]
  activation at […]: 3.48%

## COc1ccc(OC)c(N(CC(=O)Nc2ccc(I)cc2C)S(=O)(=O)c2ccccc2)c1 [compound 1003012]
[1]; [16]
  activation at […]: 5.54%
[1]; [17]
  activation at […]: 19.8%
[2]; [18]
  activation at […]: 34.4%
[2]; [19]
  activation at […]: 58.5%
[3]; [20]
  activation at […]: -10.4%
[3]; [21]
  activation at […]: -0.9%

## COc1ccc(OC)c(N(CC(=O)Nc2cccnc2)S(=O)(=O)c2ccc(C(C)=O)cc2)c1 [SW202950]
[1]; [4]
  activation at […]: -2.7%
[1]; [5]
  activation at […]: 10.7%
[2]; [6]
  activation at […]: -6.56%
[2]; [7]
  activation at […]: 12.9%
[3]; [8]
  activation at […]: 12.6%
[3]; [9]
  activation at […]: 23.9%

## COc1ccc(OC)c(N(CC(=O)Nc2cccnn2)S(=O)(=O)c2ccccc2)c1 [SW203680]
[1]; [4]
  activation at […]: 11.7%
[1]; [5]
  activation at […]: 46%
[2]; [6]
  activation at […]: 10.4%
[2]; [7]
  activation at […]: 33%
[3]; [8]
  activation at […]: 14%
[3]; [9]
  activation at […]: 25.2%

## COc1ccc(OC)c(N(CC(=O)Nc2ccc(F)cc2)S(=O)(=O)c2ccccc2)c1 [426231-26-7]
[1]; read-out: Ls174T-SC1 reporter activity, % ([…]), […], Table 18, read-out: Ls174T-SC1 reporter activity, % (2.5 μM)
  activation at […]: 16.2%
[1]; read-out: Ls174T-SC1 reporter activity, % ([…]), […], Table 18, read-out: Ls174T-SC1 reporter activity, % (7.5 μM)
  activation at […]: 22.1%
[2]; read-out: V503-3H9-7 reporter activity, % ([…]), […], Table 18, read-out: V503-3H9-7 reporter activity, % (2.5 μM)
  activation at […]: 64%
[2]; read-out: V503-3H9-7 reporter activity, % ([…]), […], Table 18, read-out: V503-3H9-7 reporter activity, % (7.5 μM)
  activation at […]: 113%
[3]; read-out: V9M-SC3 Reporter activity ([…]) (%), […], Table 18, read-out: V9M-SC3 Reporter activity (2.5 μM) (%)
  activation at […]: 10%

## CCOc1ccccc1N(CC(=O)Nc1ccccc1Br)S(=O)(=O)c1ccc(C)cc1 [compound 771074]
[1]; [16]
  activation at […]: 20.7%
[1]; [17]
  activation at […]: 20.6%
[2]; [18]
  activation at […]: 23%
[2]; [19]
  activation at […]: 39.5%
[3]; [20]
  activation at […]: 13.5%
[3]; [21]
  activation at […]: 24.7%

## COc1ccc(OC)c(N(CC(=O)Nc2cncc(C)c2)S(=O)(=O)c2ccccc2)c1 [SW202974]
[1]; [4]
  activation at […]: -8.77%
[1]; [5]
  activation at […]: 34.8%
[2]; [6]
  activation at […]: 59.9%
[2]; [7]
  activation at […]: 179%
[3]; [8]
  activation at […]: -9.04%
[3]; [9]
  activation at […]: 35.9%

## COc1ccc(OC)c(N(CC(=O)Nc2cnccc2C)S(=O)(=O)c2ccccc2)c1 [SW202967]
[1]; [4]
  activation at […]: -11.7%
[1]; [5]
  activation at […]: 9.37%
[2]; [6]
  activation at […]: 34%
[2]; [7]
  activation at […]: 69.6%
[3]; [8]
  activation at […]: -16%
[3]; [9]
  activation at […]: 0%

Reference: patent US9790233B2, “Compositions and methods of modulating 15-PGDH activity” (CASE WESTERN RESERVE UNIVERSITY, priority 2012, dated 2017)
